How the values were obtained:
[1] = Glucuronidation by human hepatic microsomal fractions with UDPGA; assay type: in vitro ADME; settings: 5 μmol/L; for Metabolism in the presence of UDPGA: UDPGA as cofactor
Procedure: Human hepatic microsomal fractions were obtained from a large pool of human liver (150 individuals) prepared by BD Gentest-Biosciences (BD UltraPool™ HLM 150 – catalogue reference, 452118 Easy Count Box, Woburn, MA). This pooled human liver microsomal batch was also validated internally by the use of FDA-recommended CYP probes (FDA guidance for Industry, draft guidance February 2012).
For glucuronidation pathways, the assay mixture was composed of human liver microsomes (2 mg·mL^−1) or microsomes of baculovirus-infected cells expressing human UGTs (1 mg·mL^−1), uridine 5′-diphosphoglucuronic acid (UDPGA) (3 mmol/L), 100 mmol/L Tris HCl (pH 7.4) containing 5 mmol/L MgCl2 and 5 μmol/L of the investigated compound dissolved in DMSO in a final volume of 500 μL. The final concentration of DMSO in the reaction mixture was less than 1% (v/v). Initial rate conditions with respect to time and protein concentration for both the disappearance of unchanged drug and the formation of respective metabolites were established in preliminary studies. The microsomal mixture was first incubated for 10 min at 4°C in the presence of alamethicin (0.125 mg·mL^−1), then the reaction was initiated by addition of UDPGA (30 mmol/L aqueous solution) to achieve a final concentration of 3 mmol/L for UGT-dependent reactions, incubated at 37°C and stopped after 0–30 min by addition of one volume of ice-cold acetonitrile.
After removal of the proteins by centrifugation at 10,000 rpm for 10 min, a portion of the supernatant was analyzed by LC-UV-MS.
Since a N-glucuronidation process could not be excluded, and because some of the metabolites bear either, a free hydroxyl group or carboxylic acid function, glucuronidation of dronedarone and its potential metabolites was also investigated in human hepatic microsomal fractions in the presence of UDPGA as cofactor. Only propanoic acid-dronedarone and phenol-dronedarone were metabolized in the presence of UDPGA.
Figure 6 Quantitative glucuronidation of propanoic acid-dronedarone (A) and phenol-dronedarone (B) during a 30-min incubation of human hepatic microsomal fractions (1 mg/mL final concentration) with 5 μmol/L unchanged drug in the presence of UDPGA. The kinetics of propanoic acid-dronedarone disappearance (○-○), phenol-dronedarone disappearance and their respective glucuronide formation (●-●, dashed line) were recorded over 30 min. Propanoic acid-dronedarone and phenol-dronedarone were quantified by LC/MS-MS relative to the synthetic references, while the peak area of their respective identified glucuronide was expressed in arbitrary units (×10^3), as described in Materials and Methods.

[2] = biological target: T1, CYP2D6 (Homo sapiens, UniProt P10635); settings: reversible inhibition, human liver microsomes, reported; cited from earlier work
T1 construct: purchased BD Gentest (Woburn, MA); host or cells: baculovirus-infected insect cells

[3] = set-up: method as in Touboul et al. [2003]; Wadhani et al. [2006]; settings: 400-mg twice daily, ref Touboul et al. [2003]; Wadhani et al. [2006]; cited from earlier work
[4] = biological target: T2, UGT2B15 (Homo sapiens, UniProt P54855); assay: Glucuronidation by recombinant human UGT2B15; assay type: in vitro ADME; settings: 1 mg/mL, 5 μmol/L, 30 min, UDPGA
T2 construct: purchased BD Gentest (Woburn, MA); host or cells: baculovirus-infected insect cells
Description: Recombinant human CYPs (Supersomes™; BD Gentes, Woburn, MA: CYP1A1, CYP1A2, CYP2A6, CYP2B6, CYP2C8, CYP2C9, CYP2C18, CYP2C19, CYP2D6, CYP2E1, CYP3A4 and CYP3A5), FMOs (Supersomes™: FMO1, FMO3, FMO5), MAOs (Supersomes™: MAO-A and MAO-B), and UGTs (Supersomes™: UGT1A1, UGT1A3, UGT1A4, UGT1A6, UGT1A7, UGT1A8, UGT1A9, UGT1A10, UGT2B4, UGT2B7, UGT2B15, and UGT2B17) expressed in baculovirus-infected insect cells and control microsomes from insect cells infected with wild-type baculovirus were all obtained from BD Gentest (Woburn, MA).
For glucuronidation pathways, the assay mixture was composed of human liver microsomes (2 mg·mL^−1) or microsomes of baculovirus-infected cells expressing human UGTs (1 mg·mL^−1), uridine 5′-diphosphoglucuronic acid (UDPGA) (3 mmol/L), 100 mmol/L Tris HCl (pH 7.4) containing 5 mmol/L MgCl2 and 5 μmol/L of the investigated compound dissolved in DMSO in a final volume of 500 μL. The final concentration of DMSO in the reaction mixture was less than 1% (v/v). […]
Figure 7 Contribution of individual UGTs to the glucuronidation of propanoic acid-dronedarone and phenol-dronedarone. […] Unchanged drugs were quantified by LC/MS-MS relative to the synthetic references as described in Materials and Methods. Data are expressed as the percentage of glucuronidation.

T2 sequence (P54855 24-530): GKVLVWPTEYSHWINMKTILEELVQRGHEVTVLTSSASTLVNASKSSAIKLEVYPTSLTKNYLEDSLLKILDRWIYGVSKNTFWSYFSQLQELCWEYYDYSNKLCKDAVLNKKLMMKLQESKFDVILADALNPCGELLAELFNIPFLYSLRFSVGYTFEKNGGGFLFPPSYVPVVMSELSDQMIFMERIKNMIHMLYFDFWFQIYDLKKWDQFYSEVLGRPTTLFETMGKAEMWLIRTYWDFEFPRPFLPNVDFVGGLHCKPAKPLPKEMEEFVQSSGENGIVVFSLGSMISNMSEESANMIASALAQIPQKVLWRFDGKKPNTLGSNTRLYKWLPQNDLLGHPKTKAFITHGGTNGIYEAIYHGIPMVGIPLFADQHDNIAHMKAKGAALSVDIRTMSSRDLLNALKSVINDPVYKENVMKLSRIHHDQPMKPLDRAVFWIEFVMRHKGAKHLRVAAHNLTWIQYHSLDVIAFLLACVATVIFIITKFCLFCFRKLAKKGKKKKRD
T1 sequence (P10635 whole entry): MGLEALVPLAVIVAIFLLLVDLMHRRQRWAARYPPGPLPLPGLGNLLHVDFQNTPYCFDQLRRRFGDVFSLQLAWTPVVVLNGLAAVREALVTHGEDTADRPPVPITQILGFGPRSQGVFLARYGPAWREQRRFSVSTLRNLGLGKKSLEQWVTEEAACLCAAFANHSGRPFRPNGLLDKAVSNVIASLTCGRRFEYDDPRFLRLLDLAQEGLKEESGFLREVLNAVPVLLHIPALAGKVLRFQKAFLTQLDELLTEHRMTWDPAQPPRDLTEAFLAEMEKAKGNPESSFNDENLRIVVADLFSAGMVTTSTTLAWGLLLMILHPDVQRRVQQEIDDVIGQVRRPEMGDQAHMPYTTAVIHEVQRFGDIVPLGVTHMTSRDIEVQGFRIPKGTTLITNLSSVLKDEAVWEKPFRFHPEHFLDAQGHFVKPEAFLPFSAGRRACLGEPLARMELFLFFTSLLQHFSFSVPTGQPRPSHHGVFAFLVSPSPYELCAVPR

| Structure (SMILES) | Metabolism in the presence of UDPGA [1] | Unchanged drug remaining, percent of initial concentration ([1]; UDPGA, 30th minute of incubation) [%] | Ki [2] [µM] | Incidence of any QTc interval >500 msec [3] [%] | PR interval increase [3] [ms] | Initial drug metabolized ([1]; UDPGA, in 10 min) | Glucuronosyl transferase activity of UGT2B15 [4] |
| --- | --- | --- | --- | --- | --- | --- | --- |
| CCCCc1oc2ccc(NS(C)(=O)=O)cc2c1C(=O)c1ccc(OCCC(=O)O)cc1 [Propanoic acid-dronedarone] | metabolized | 70 |  |  |  |  |  |
| CCCCc1oc2ccc(NS(C)(=O)=O)cc2c1C(=O)c1ccc(OCCCN(CCCC)CCCC)cc1.Cl [Dronedarone, N-(2-Butyl-3-(4-(3-(dibutylamino)propoxy)benzoyl)-5-benzofuranyl)methanesulfonamide, hydrochloride] |  |  | 5 | 7.7 | 13.4 |  |  |
| CCCCc1oc2ccc(NS(C)(=O)=O)cc2c1C(=O)c1ccc(O)cc1 [Phenol-dronedarone] | metabolized |  |  |  |  | more than 70% | significant glucuronosyl transferase activity |

Source: paper PMC4186413, “Identification of metabolic pathways and enzyme systems involved in the in vitro human hepatic metabolism of dronedarone, a potent new oral antiarrhythmic drug” (Pharmacology Research & Perspectives, 2014)
